Measured values published in patent US6103709A (priority 1998, dated 2000).

Tests used:
[1] = test system: chloride channels in ROS 17/2.8 cells; details: 1 nM HL in the bath; 1α,25(OH)2 D3 5 nM or less; listed as 1β,25(OH)2 D3
Description: In each case, at least a 3-min period was allowed after the addition of the analog to the bath for currents to reach a stable amplitude value. […] Anion currents were isolated from inward Ba^2+ currents after blockade of Ca^2+ channels with 100 μM Cd^2+.

[2] = test system: MAP-kinase p42^mapk in NB4 cells; assay: MAP-kinase activation (p42mapk phosphorylation) in NB4 cells; format: cell-based, human
Description: In order to determine whether MAP-kinase phosphorylation is specific and is altered by 1α,25(OH)2 D3, the time-dependent effects of 1α,25(OH)2 D3 on p42^mapk phosphorylation was examined using human acute promyelocytic leukemia cells (NB4). In this study, the NB4 cells, cultured in 10% charcoal-stripped fetal calf serum (FCS) medium, were treated with 1α,25(OH)2 D3 at 10^-8 M for various time periods. Cells were then extracted and the phosphorylated MAP-kinase was immunoprecipitated with anti-phosphotyrosine antibody and further analyzed by Western blot using the antibodies against p42^mapk.
The lysate was further processed for anti-phosphotyrosine immunoprecipitation. […] After transferring the proteins to the PVDF membrane, the membrane was further incubated with primary anti-p42^mapk antibodies that were (+) or were not (-) pre-exposed to MAP-kinase peptide.
This example describes assays used for measurement of MAP-kinase activity in NB4 cells.
Cell culture of NB4 cells
The cell line is characterized by a translocation involving chromosomes 15 and 17, which is typical of the classical form of APL-M3 in the French-American-British [FAB] classification. NB4 cells were cultured in DMEM/F12 medium with 10% FCS at 5% CO2 balanced air and were routinely passaged as suspension cultures and only passages 8 to 20 were used for each assay.
Immunoprecipitation of Tyrosine-Phosphorylated Proteins
NB4 cells were cultured in 60-mm diameter dishes and treated with 1,25(OH)2 D3 or analogs in 4 ml of DMEM/F12 containing 10% charcoal-stripped FCS.
Insoluble material was removed in a microcentrifuge at 14,000 rpm for 10 min. Protein concentration was determined with a protein assay kit (Bio-Rad Lab, Hercules, Calif.). For immunoprecipitation, the supernatant was incubated with bead-conjugated monoclonal anti-phosphotyrosine antibody overnight at 4° C. The immunoprecipitates containing the tyrosine-phosphorylated proteins were washed four times with freshly-prepared RIPA buffer and further eluted with 2× Laemmli gel buffer.
At this point, the samples were either stored at -20° C. for further use or processed via Western blots. Equal loading of MAP-kinase protein was determined by running the Western blots using polyclonal anti-p42^mapk antibody. For this purpose, samples were aliquoted from each cell extract before immunoprecipitation.
SDS Gel Electrophoresis and Western blot
The membrane was further immunoblotted using a rabbit anti-p42^mapk polyclonal antibody overnight at 4° C. followed by incubation with secondary horseradish peroxidase-conjugated mouse anti-rabbit antibody for 1 hr at 25° C. The phosphorylated MAP-kinase bands were then visualized by enhanced chemiluminescence (ECL). A Ultrascan LX Laser Densitometer (LKB, Bromma, Sweden) scanned the density of the immuno-phosphoprotein bands. The results were normalized by protein loading and further plotted as percent of control of the band density.

VDRmem = assay: Rapid response (summary classification); details: Yes/No, Tables 1 and 6
Description: (§1) Table 6 identifies biological properties, such as genomic response, rapid response, agonist or antagonist function, binding of the analog to the vitamin binding protein (expressed as RCI), binding to the nuclear 1α,25(OH)2 D3 receptor (expressed as RCI) rapid response (expressed as % transcaltachia the rapid hormonal stimulation of intestinal calcium absorption) the classic vitamin D responses such as intestinal Ca^2+ absorption (ICA) and bone Ca^2+ mobilizing activity (BCM) determined in vivo in a vitamin D-deficient chick, and cell differentiation (expressed as % ED50), an assessment of the ability to promote the nuclear response of cell differentiation.

HL-60 cells = assay: Cell differentiation assay (NBT reduction); format: cell-based
Description: The cell differentiation assay is used for a determination of relative potency of the analog vis-a-vis the potency of the reference compound 1α,25(OH)2 D3 in promoting the cell differentiation or inhibiting the cell proliferation. The results of the cell differentiation assay are expressed as the effective dose-50 (ED-50) which is defined as 50% of the concentration required for a maximal response.
Cell Differentiation Assay
After 4 days of culture in a humidified atmosphere of 5% CO2 in air at 37° C., the dishes were shaken to loosen any adherent cells. All cells were then assayed for differentiation by NBT reduction assay and for proliferation by [^3 H]thymidine incorporation.
Superoxide production was assayed by nitro blue tetrazolium-reducing activity as follows.
The percentage of cells containing black formazan deposits was determined using a hemacytometer.

VDRnuc = assay: Genomic response (summary classification); details: Yes/No, Tables 1 and 6
Description: as §1

[3] = molecular target: T1, nuclear receptor for 1α,25(OH)2 D3 [VDRnuc] (Gallus gallus, UniProt O42392); assay: Relative Competitive Index (steroid competition) assay, nuclear receptor VDRnuc; format: binding, chick; design: key to Nuclear 1α,25-D Receptor (RCI): % relative to 1α,25(OH)2D3 binding (RCI = 100%)
T1 construct: VDRnuc receptor preparation from chick intestine mucosa; from tissue; host or cells: chick intestinal mucosa
T1 sequence (O42392 1-451): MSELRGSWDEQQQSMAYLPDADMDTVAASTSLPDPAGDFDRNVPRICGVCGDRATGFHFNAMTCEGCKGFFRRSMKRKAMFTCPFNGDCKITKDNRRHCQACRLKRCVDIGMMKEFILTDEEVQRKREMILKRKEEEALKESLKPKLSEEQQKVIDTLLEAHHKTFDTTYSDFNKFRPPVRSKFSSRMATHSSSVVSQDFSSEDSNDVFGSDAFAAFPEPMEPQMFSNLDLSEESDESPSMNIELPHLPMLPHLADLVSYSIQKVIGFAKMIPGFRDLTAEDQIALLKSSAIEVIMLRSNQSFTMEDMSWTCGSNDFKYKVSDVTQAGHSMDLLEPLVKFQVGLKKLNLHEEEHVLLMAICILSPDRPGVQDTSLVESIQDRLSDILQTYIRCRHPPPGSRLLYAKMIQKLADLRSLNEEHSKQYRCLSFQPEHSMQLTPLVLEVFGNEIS
Description: The ability of analogs to mediate genomic responses are directly determined by the ability of the analog in question to bind to the nuclear receptor for 1α,25(OH)2 D3 [VDRnuc ]. This ability is detected by the assay measuring Relative Competitive Index (RCI).
The assay is based upon the principles of a steroid competition assay. A fixed amount of [^3 H]1α,25(OH)2 D3 is mixed with increasing amounts of competitive analogs or the natural hormone, 1α,25(OH)2 D3, and incubated with a VDRnuc receptor preparation from chick intestine mucosa.
Ligand Receptor Competition Assay
This example describes a ligand receptor competitive assay used for determination of an analog's relative ability to bind to VDRnuc expressed as relative competitive index (RCI).
The relative affinity of nonradioactive 1α,25(OH)2 D3 and each analog to compete with [^3 H]1α,25(OH)2 D3 for binding to the VDRnuc of NB4 cells was carried out in vitro. The NB4 cells were collected from a fast growing stage and the cellular VDRnuc of 1α,25(OH)2 D3 were extracted from KTED buffer containing 10 mM Tris-HCl, pH 7.4, 300 mM KCl, 1 mM EDTA and 5 mM DTT. After sonication, the cell extract was further centrifuged at 500× g for 10 min. The supernatant was collected for use in a ligand-receptor binding assay.
In this assay, increasing concentrations (10^-10 to 10^-6 M) of nonradioactive 1α,25(OH)2 D3 or the tested analogs were incubated with NB4 cell extracts in the presence of a fixed saturating amount of 1 pmole of [^3 H]1α,25(OH)2 D3. The reciprocal of the percentage of maximal binding of [^3 H]1α,25(OH)2 D3 was then calculated and plotted as a function of the relative analog concentration versus [^3 H]1α,25(OH)2 D3. […] The competitive index value for each analog is then normalized to the competitive index value of the […], thereby generating the value of Relative Competitive Index (RCI) where the RCI for 1α,25(OH)2 D3 is defined as 100%.
The full description of the assay is found in Methods in Enzymology: Vitamins and Co-Enzymes, Vol. 67, 494-500 , Academic Press, NY(1980); Biochem. Biophys. Res. Commun., 91: 827-834 (1979); and Endocrinology, 139(2): 457-465 (1998).

rapid responses (VDRmem) = assay: Antagonist function (summary classification); details: Yes/No, Tables 1 and 6
Description: as §1

[4] = test system: intestinal Ca2+ transport in perfused chick duodena (transcaltachia); assay: Transcaltachia assay (rapid stimulation of 45Ca2+ transport in perfused duodena); details: 1α,25(OH)2 D3 = 100
Description: Duodenal loops from normal, vitamin D-replete chicks were lumenally perfused with ^45 Ca^2+ (5 uCi/ml of buffer). To establish basal transport rates, celiac artery of controls were perfused with control medium for the first 20 min. The duodena were then either re-exposed to control medium containing the vehicle ethanol (0.005%, final concentration) through the celiac artery, or vascularly perfused with 300 pM or 650 pM agonist analogs JM or JN or with 650 pM of a control reference compound 1α,25(OH)2 D3. The venous effluent was collected at 2 min intervals for liquid scintillation spectrophotometry of the ^45 Ca^2+. […] Values represent mean ±SEM for n=4 in each group.
The data shown in FIG. 13 are the mean ±SEM from 4-5 duodena. […] Open circles represent the negative control receiving no treatment with 1α,25(OH)2 D3 or analog. […] Data represent the ratio of treated to basal values ±SEM extracted from a time-course plot (as in panel A) at 32 minutes.
This example describes the assay used for testing rapid response transcaltachia described in J. Biol. Chem, 268: 13811-13819 (1993).
White Leghorn cockerels (Hyline International, Lakeview, Calif.) were obtained on the day of hatch and maintained on a vitamin D-supplemented diet (1.0% calcium and 1.0% phosphorus; O. H. Kruse Grain and Milling, Ontario, Calif.) for 5-6 weeks to prepare normal vitamin D3 -replete chicks for use in the transcaltachia studies.
Measurements of ^45 Ca^2+ transport were carried out in perfused chick duodena. Normal vitamin D-replete chicks weighing approximately 500 g were anesthetized with 0.3 ml per 100 g Chloropent (Fort Dodge, Iowa), and the duodenal loop was surgically exposed. The celiac vein and blood vessels branching off from the celiac artery were ligated before cannulation of the celiac artery itself, and vascular perfusion was immediately initiated. Both the celiac artery and vein of the duodena were perfused with modified Grey's balanced salt solution (GBSS) +0.9 mM Ca which was oxygenated with 95% O2 and 5% CO2. A basal transport rate was established by perfusion with control medium for 20 minutes after the intestinal lumen was filled with ^45 Ca^2+. The tissue was then exposed to 1α,25(OH)2 D3 or analogs or reexposed to control medium for an additional 40 minutes. The vascular perfusate was collected at 2 min intervals during the last 10 min of the basal and during the entire treatment period. Duplicate 100 μl aliquots were taken for determination of the ^45 Ca^2+ levels by liquid scintillation spectrometry.

Compound: C=C1/C(=C\C=C2/CCC[C@]3(C)[C@@H]([C@H](C)CCCC(C)(C)O)CC[C@@H]23)C[C@@H](O)C[C@H]1O [Analog HL, 1β,25-dihydroxyvitamin D3]
- antagonism of 1α,25(OH)2 D3-stimulated chloride channel opening [1]: significantly reduced

Compound: CC1=C(/C=C\C2=CCC[C@]3(C)[C@@H]([C@H](C)CCCC(C)(C)O)CC[C@@H]23)C[C@@H](O)C[C@@H]1O [HF]
- activation of MAP-kinase versus 1α,25(OH)2 D3 ([2]; 1 minute): more than 1α,25(OH)2 D3
- activation of MAP-kinase versus 1α,25(OH)2 D3 ([2]; 5 minute): only slightly less active

Compound: C=C1/C(=C\C=C2/CCC[C@]3(CO)[C@@H]([C@H](C)CCCC(C)(C)O)CC[C@@H]23)C[C@@H](O)C[C@@H]1O [HS]
- Rapid Response (VDRmem): Yes
- potency at promoting cell differentiation versus 1α,25(OH)2 D3 (HL-60 cells): about twenty times more potent
- Genomic Response (VDRnuc): Yes
- Binding to VDRnuc relative to 1α,25(OH)2 D3 (RCI) ([3]; 1α,25(OH)2 D3 = 100%, FIG. 8: chick intestine mucosa): 25%
- Nuclear 1α,25-D Receptor (RCI) ([3]; RCI of 1α,25(OH)2 D3 = 100): 25
- Antagonist (rapid responses (VDRmem)): No

Compound: CC1=C(/C=C/C2=CCC[C@]3(C)[C@@H]([C@H](C)CCCC(C)(C)O)CC[C@@H]23)C[C@@H](O)C[C@@H]1O [JB]
- Rapid Trans-Caltachia, relative to 1α,25(OH)2 D3 [4]: smaller than 5%
